Read-outs that look alike come from different tables or passages of the source.
Key:
[1] = system: Plasmodium falciparum 3D7-A10 parasites; test: Stage specificity assay (8-h exposure of synchronized stages, IC50^8h); assay type: cell-based; details: for IC50: Plasmodium falciparum
[2] = system: 3D7-MR4 trophozoite parasite-infected RBCs; test: Metabolomic profiling (hydrophilic metabolite changes, UHPLC-MS); assay type: cell-based, Plasmodium falciparum
[3] = system: asynchronous 3D7-A10 parasite cultures; test: Standard 72-h exposure asexual blood stage susceptibility assay (IC50^72h); assay type: cell-based, Plasmodium falciparum; details: Plasmodium falciparum, 3D7, 72 h, read-out: Overall (72hr assay) Mean IC50 (IC50^72h)

Compound: OC(c1cc(C(F)(F)F)nc2c(C(F)(F)F)cccc12)C1CCCCN1 (stereo not drawn) [Mefloquine, reference compound]
- Ratio lowest IC50 8hr/IC50 72hr ([1]; 3D7-A10): 3.0
- IC50 ([1]; 3D7, read-out: Early rings Mean IC50 (IC50^8h), 8-h exposure 0–8 hr, 3D7-A10, survival at 60 h): 258 nM
- IC50 ([1]; 3D7, read-out: Early trophozoites Mean IC50 (IC50^8h), 8-h exposure 16–24 hr, 3D7-A10, survival at 60 h): 28.8 nM
- IC50 ([1]; 3D7, read-out: IC50^8h values, text summary of Table S1): < 300 nM
- IC50 ([1]; 3D7, read-out: Late rings Mean IC50 (IC50^8h), 8-h exposure 8–16 hr, 3D7-A10, survival at 60 h): 147 nM
- IC50 ([1]; 3D7, read-out: Late trophozoites Mean IC50 (IC50^8h), 8-h exposure 24–32 hr, 3D7-A10, survival at 60 h): 29.5 nM
- IC50 ([1]; 3D7, read-out: Schizonts Mean IC50 (IC50^8h), 8-h exposure 32–40 hr, 3D7-A10, survival at 60 h): 138 nM
- Stage of peak activity (Figure 6) ([1]; period when the parasite was most susceptible (lowest IC50^8h)): only in trophozoites
- Peak Activity (Table S1) ([1]; stage(s) with the lowest IC50^8h): Trophs
- changes within the set of metabolites detected (low fold change group) ([2]; 10 × IC50^72h, 2.5 hr, trophozoites): did not induce major changes
- Log2(fold changes) 3-phosphoglycerate ([2]; metabolite 3-phosphoglycerate, log2 fold change): 0.2359
- Log2(fold changes) 4-Pyridoxic acid ([2]; metabolite 4-Pyridoxic acid, log2 fold change): 0.0740
- Log2(fold changes) 4-aminobutyrate ([2]; metabolite 4-aminobutyrate, log2 fold change): -0.0258
- Log2(fold changes) 4-phosphopantetheine ([2]; metabolite 4-phosphopantetheine, log2 fold change): 0.0000
- Log2(fold changes) 4-phosphopantothenate ([2]; metabolite 4-phosphopantothenate, log2 fold change): 0.0024
- Log2(fold changes) 5-aminopentanoic acid ([2]; metabolite 5-aminopentanoic acid, log2 fold change): 0.0000
- Log2(fold changes) 5-methyl-THF ([2]; metabolite 5-methyl-THF, log2 fold change): 0.0000
- Log2(fold changes) 5-phosphoribosyl-1-pyrophosphate ([2]; metabolite 5-phosphoribosyl-1-pyrophosphate, log2 fold change): 0.0000
- Log2(fold changes) 6-phospho-D-gluconate ([2]; metabolite 6-phospho-D-gluconate, log2 fold change): -0.0079
- Log2(fold change) HVDD ([2]; metabolite HVDD): 0.0000
- Log2(fold change) Hydroxyisocaproic acid ([2]; metabolite Hydroxyisocaproic acid): 0.0000
- Log2(fold change) IDP ([2]; metabolite IDP): 0.0640
- Log2(fold change) IMP ([2]; metabolite IMP): -0.0534
- Log2(fold change) Inositol ([2]; metabolite Inositol): 0.0000
- Log2(fold change) Isopentyl-PP ([2]; metabolite Isopentyl-PP): 0.0000
- Log2(fold change) L-arginino-succinate ([2]; metabolite L-arginino-succinate): -0.3693
- Log2(fold change) LD ([2]; metabolite LD): 0.0808
- Log2(fold change) Myristoyl/tetradecanoyl-CoA ([2]; metabolite Myristoyl/tetradecanoyl-CoA): 0.0941
- Log2(fold change) N-Acetyl-L-alanine ([2]; metabolite N-Acetyl-L-alanine): -0.2190
- Log2(fold change) N-acetyl-L-ornithine ([2]; metabolite N-acetyl-L-ornithine): -0.0436
- Log2(fold change) N-acetyl-glucosamine-1/6-phosphate ([2]; metabolite N-acetyl-glucosamine-1/6-phosphate): 0.0000
- Log2(fold change) N-acetyl-glutamate ([2]; metabolite N-acetyl-glutamate): 0.0134
- Log2(fold change) N-acetyl-glutamine ([2]; metabolite N-acetyl-glutamine): 0.0000
- Log2(fold change) N-carbamoyl-L-aspartate ([2]; metabolite N-carbamoyl-L-aspartate): 0.0293
- Log2(fold change) NAD+ ([2]; metabolite NAD+): -0.0636
- Log2(fold change) NADH ([2]; metabolite NADH): 0.0000
- Log2(fold change) NADP+ ([2]; metabolite NADP+): -0.0054
- Log2(fold change) NADPH ([2]; metabolite NADPH): 0.3297
- Log2(fold change) O-acetyl-L-serine ([2]; metabolite O-acetyl-L-serine): 0.0000
- Log2(fold change) Octoluse 8/1P ([2]; metabolite Octoluse 8/1P): -0.0524
- Log2(fold change) Octoluse Bisphosphate ([2]; metabolite Octoluse Bisphosphate): -0.1015
- Log2(fold change) PD ([2]; metabolite PD): -0.1757
- Log2(fold change) PE ([2]; metabolite PE): -0.0476
- Log2(fold change) PEE ([2]; metabolite PEE): 0.0186
- Log2(fold change) PEEK ([2]; metabolite PEEK): 0.1844
- Log2(fold change) PVNF ([2]; metabolite PVNF): 0.0025
- Log2(fold change) Pyroglutamic acid ([2]; metabolite Pyroglutamic acid): -0.3976
- Log2(fold change) Pyrophosphate ([2]; metabolite Pyrophosphate): 0.0000
- Log2(fold change) Ribose-5-phosphate ([2]; metabolite Ribose-5-phosphate): 0.0147
- Log2(fold change) S-adenosyl-L-homocysteine ([2]; metabolite S-adenosyl-L-homocysteine): 0.1505
- Log2(fold change) S-adenosyl-L-methioninamine ([2]; metabolite S-adenosyl-L-methioninamine): 0.0000
- Log2(fold change) S-adenosyl-L-methionine ([2]; metabolite S-adenosyl-L-methionine): 0.0000
- Log2(fold change) S-methyl-5'-thioadenosine ([2]; metabolite S-methyl-5'-thioadenosine): 0.0813
- Log2(fold change) SD ([2]; metabolite SD): -0.0876
- Log2(fold change) SDL ([2]; metabolite SDL): -0.0202
- Log2(fold change) SID ([2]; metabolite SID): 0.0863
- Log2(fold change) Sedoheptulose bisphosphate ([2]; metabolite Sedoheptulose bisphosphate): 0.1126
- Log2(fold change) Thiamine pyrophosphate ([2]; metabolite Thiamine pyrophosphate): -0.0341
- Log2(fold changes) UDP-D-glucose ([2]; metabolite UDP-D-glucose, log2 fold change): 0.0242
- Log2(fold changes) UDP-D-glucuronate ([2]; metabolite UDP-D-glucuronate, log2 fold change): 0.0727
- Log2(fold changes) UDP-N-acetyl-glucosamine ([2]; metabolite UDP-N-acetyl-glucosamine, log2 fold change): -0.0280
- Log2(fold changes) UDP ([2]; metabolite UDP, log2 fold change): -0.6698
- Log2(fold changes) UMP ([2]; metabolite UMP, log2 fold change): -0.1565
- Log2(fold changes) UTP ([2]; metabolite UTP, log2 fold change): 0.0862
- Log2(fold change) hydroxyphenylpyruvate ([2]; metabolite hydroxyphenylpyruvate): 0.0000
- Log2(fold change) hydroxyproline/Aminolevulinate ([2]; metabolite hydroxyproline/Aminolevulinate): 0.0725
- Log2(fold change) hypoxanthine ([2]; metabolite hypoxanthine): 0.0000
- Log2(fold change) indole ([2]; metabolite indole): 0.0000
- Log2(fold change) inosine ([2]; metabolite inosine): -0.4356
- Log2(fold change) isoleucine ([2]; metabolite isoleucine): -0.0171
- Log2(fold change) lactate ([2]; metabolite lactate): -0.5208
- Log2(fold change) leucine ([2]; metabolite leucine): -0.1746
- Log2(fold change) lysine ([2]; metabolite lysine): -0.1798
- Log2(fold change) malate ([2]; metabolite malate): -0.0910
- Log2(fold change) maleic acid ([2]; metabolite maleic acid): -0.0602
- Log2(fold change) methionine ([2]; metabolite methionine): -0.0405
- Log2(fold change) myo-inositol ([2]; metabolite myo-inositol): -0.7507
- Log2(fold change) nicotinamide mononucleotide ([2]; metabolite nicotinamide mononucleotide): -0.0942
- Log2(fold change) nicotinate ([2]; metabolite nicotinate): -0.4821
- Log2(fold change) ornithine ([2]; metabolite ornithine): 0.0000
- Log2(fold change) orotate ([2]; metabolite orotate): -0.4063
- Log2(fold change) orotidine-5'-phosphate ([2]; metabolite orotidine-5'-phosphate): -0.7157
- Log2(fold change) oxaloacetate ([2]; metabolite oxaloacetate): 0.0000
- Log2(fold change) p-aminobenzoate ([2]; metabolite p-aminobenzoate): 0.0000
- Log2(fold change) p-hydroxybenzoate ([2]; metabolite p-hydroxybenzoate): 0.0000
- Log2(fold change) pantothenate ([2]; metabolite pantothenate): 0.0000
- Log2(fold change) phenylalanine ([2]; metabolite phenylalanine): -0.1685
- Log2(fold change) phenylpyruvate ([2]; metabolite phenylpyruvate): 0.0000
- Log2(fold change) phosphoenolpyruvate ([2]; metabolite phosphoenolpyruvate): 0.1912
- Log2(fold change) prephenate ([2]; metabolite prephenate): 0.0000
- Log2(fold change) proline ([2]; metabolite proline): -0.3045
- Log2(fold change) pyridoxine ([2]; metabolite pyridoxine): -0.5037
- Log2(fold change) pyruvate ([2]; metabolite pyruvate): -0.3898
- Log2(fold change) riboflavin ([2]; metabolite riboflavin): -0.1185
- Log2(fold change) ribose ([2]; metabolite ribose): -0.0288
- Log2(fold change) ribose-phosphate ([2]; metabolite ribose-phosphate): -0.1512
- Log2(fold change) ribulose-5-phosphate ([2]; metabolite ribulose-5-phosphate): 0.0069
- Log2(fold change) serine ([2]; metabolite serine): -0.0430
- Log2(fold change) sn-glycerol-3-phosphate ([2]; metabolite sn-glycerol-3-phosphate): 0.2262
- Log2(fold change) succinate/Methylmalonic acid ([2]; metabolite succinate/Methylmalonic acid): 0.1026
- Log2(fold change) succinyl-CoA/methylmalonyl-CoA ([2]; metabolite succinyl-CoA/methylmalonyl-CoA): 0.0000
- Log2(fold change) taurine ([2]; metabolite taurine): -0.0060
- Log2(fold change) thiamine ([2]; metabolite thiamine): -0.0860
- Log2(fold change) threonine/homoserine ([2]; metabolite threonine/homoserine): -0.1129
- Log2(fold change) thymidine ([2]; metabolite thymidine): 0.0000
- Log2(fold changes) thymine ([2]; metabolite thymine, log2 fold change): 0.0000
- Log2(fold changes) trehalose-6-Phosphate ([2]; metabolite trehalose-6-Phosphate, log2 fold change): 0.0000
- Log2(fold changes) tryptophan ([2]; metabolite tryptophan, log2 fold change): 0.0186
- Log2(fold changes) tyrosine ([2]; metabolite tyrosine, log2 fold change): 0.0223
- Log2(fold changes) uridine ([2]; metabolite uridine, log2 fold change): 0.0000
- IC50 [3]: 9.8 nM
